In patent US20040170622A1, “Methods and compositions for modulating XBP-1 activity” (President and Fellows of Harvard College, priority 2002, published 2004):
Where a SMILES comes first, the peptide text is derived from it. The star is where a group is joined. Cbz = O=C(OCc1ccccc1)*

What was measured:
Assay type in all cases: cell-based
XBP-1 protein = XBP-1 protein species in MOPC315 and MM.1S myeloma cells treated with proteasome inhibitors (Western blot); conditions: mouse myeloma MOPC315 and human myeloma MM.1S
Description: A variety of reversible and irreversible inhibitors that inhibit degradation of proteins by the ubiquitin-proteasome pathway have recently been identified. Proteasome inhibitors MG132 and PS341 block the rapid degradation of ubiquitinated proteins such as unspliced, but not spliced XBP-1. Myeloma cells express primarily spliced XBP-1 protein as expected. […] In this experiment lysates from MOPC315 cells were untreated or treated for 6 hours with 5 ug/ml of tunicamycin or 20 uM of MG-132 and were analyzed for the presence of XBP-1 using XBP-1 antibody. The two forms of XBP-1 were distinguished by their molecular weight.
In the presence of proteasome inhibitors, unspliced XBP-1 protein accumulates in the cell and is present at higher levels than the spliced protein. Lysates from Mm. 1S cells were untreated or treated for 1, 4, or 8 hours with 20 uM of PS-341 and were analyzed by western blotting with anti-XBP-1 antibody. Because unspliced, but not spliced XBP-1 is stabilized, the ratio of unspliced to spliced XBP-1 increases in cells treated with proteasome inhibitors.

[1] = test system: IRE1α-mediated XBP-1 mRNA splicing; assay: XBP-1 mRNA level and splicing in J558 cells (Northern blot, RT-PCR); conditions: for XBP-1 mRNA splicing, agent alone (RT-PCR) / overall levels of XBP-1 RNA (Northern blot): J558 cells
Description: (§1) (A) XBP-1 mRNA levels in ER stressed J558 cells treated with Tm for 4 hrs in the absence or presence of MG-132. Cells were pretreated with MG-132 for 1 hr before adding Tm. XBP-1 mRNA levels were determined by Northern blot analysis. […] (C) Effect of a panel of PIs on XBP-1 splicing. Cells were treated with Tm for 4 hrs in the absence or presence of MG-132 (10 μM), PS-341 (10 μM), Lactacystin (10 μM), ZL3VS (50 μM) or AdaAhxL3VS (50 μM), and XBP-1 mRNA splicing measured by RT-PCR analysis. (D) IRE-1α phosphorylation in NIH3T3 cells were treated with Tm as indicated after 2 hrs of pretreatment with MG-132 (10 μM).
Total RNA was prepared by using Trizol reagent, electrophoresed on 1.2% agarose, 6% formaldehyde gels and then transferred onto Genescreen Plus membrane, (NEN, Boston, Mass.). […] Probes for ERdj4 and p58^IPK were generated from cDNA excised from EST clones (ATCC, Manassas, Va.) using appropriate restriction enzymes (ERdj4, IMAGE: 1920927; p58^IPK, IMAGE:2646147).

IRE1α = IRE1α phosphorylation in NIH3T3 cells (Western blot)
Description: as §1
Cells were lysed in RIPA buffer (50 mM Tris pH 7.4, 150 mM NaCl, 1 mM EDTA, 1% Triton X-100, 1% sodium deoxycholate, 0.1% SDS) and lysates subjected to SDS-PAGE and transferred to Hybond P membrane (Amersham-Pharmacia, Piscataway, N.J.). […] HeLa cells were cotransfected with XBP-1u and His-tagged ubiquitin expression plasmids (pMT 107, D. Bohmann, EMBL, Germany) by using the Lipofectamine-2000 reagent (Invitrogen, Carlsbad, Calif.). […] Degradation rates of XBP-1u and XBP-1s proteins were determined by pulse labeling J558 cells with ^35S Met/Cys for 1 hr and chasing for the indicated times.

XBP-1s = assay: UPRE-luciferase reporter in NIH3T3 cells
Description: (A) Ubiquitination of XBP-1 in HeLa cells were cotransfected with XBP-1u and His-tagged ubiquitin expression plasmids. (B) Degradation rates of XBP-1u and XBP-1s proteins were determined by pulse labeling J558 cells with ^35S Met/Cys for 1 hr and chasing for the indicated times. (C) Effect of XBP-1u on XBP-1s dependent UPRE activation in PI-treated NIH3T3 cells with 8-fold excess of XBP-1u plasmids. Transfected cells were treated with MG-132 for 16 hrs before harvesting for luciferase assays. Values represent fold induction of activity compared to the reporter alone after normalizing to Renilla. (D) Generation and expression of lysine to arginine XBP-1u mutants. Two or three lysine residues in the C-terminus of XBP-1u were replaced by arginine to generate XBP-1uKK (235, 252) and XBP-1uKKK(146, 235, 252) by site-directed mutagenesis. dn-XBP contains the N-terminal 188 aa of XBP-1u. Western blot analysis was performed with NIH3T3 extracts transfected with the indicated plasmids. E) Inhibition of XBP-1 dependent activation of the UPRE reporter in NIH 3T3 cells by XBP-1u lysine to arginine mutants.
Two or three lysine residues in the C-terminus of XBP-1u were replaced by arginines to generate XBP-1uKK (K235R, K252R) and XBP-1uKKK(K146R, K235R, K252R) by site-directed mutagenesis (Iwakoshi et al.2003 Nature Immunology 4: 321-329). dn-XBP contains the N-terminal 188 aa of XBP-1u. NTH3T3 cells were transfected by using the Lipofectamine2000 reagent as recommended by the manufacturer (Invitrogen, Carlsbad, Calif.) with indicated amount of UPRE (UPR element) reporter (Wang et al. 2000 J Biol Chem 275: 27013-27020) and various effector plasmids. Cells were treated for 16 hours before harvest in certain experiments. Cells were lysed in passive lysis buffer for dual luciferase assays according to the manufacturer's protocol (Promega, Madison, Wis.).

Molecule: CC(C)C[C@@H](C=O)NC(=O)[C@H](CC(C)C)NC(=O)[C@H](CC(C)C)NC(=O)OCc1ccccc1 [MG-132] (Cbz-Leu-Leu-Leu-aldehyde)
- amount of unspliced XBP-1 protein (XBP-1 protein): dramatic increase in the amount of unspliced XBP-1 protein
- levels of active spliced XBP-1 protein (XBP-1 protein): concomitant decrease in levels of the active spliced XBP-1 protein
- effect on Tm-induced XBP-1 mRNA splicing ([1]; J558, Tm 4 hrs, MG-132 10 μM, PS-341 10 μM, ZL3VS 50 μM, AdaAhxL3VS 50 μM): suppressed by MG-132 in a dose dependent manner
- XBP-1 mRNA splicing, agent alone (RT-PCR) [1]: did not induce any XBP-1mRNA splicing
- overall levels of XBP-1 RNA (Northern blot) [1]: not significantly altered
- effect on Tm-induced IRE1α phosphorylation (IRE1α; 2 hrs pretreatment with MG-132 10 μM): completely blocked the phosphorylation of IRE1α by Tm

Molecule: tunicamycin [Tm]
- XBP-1 mRNA splicing, agent alone (RT-PCR) [1]: markedly induced XBP-1 mRNA splicing
- overall levels of XBP-1 RNA (Northern blot) [1]: not significantly altered
- IRE1α phosphorylation (IRE1α; Tm-treated vs untreated cells): increase in the phosphorylated (slower mobility) and decrease in unphosphorylated IRE1α species

B1: XBP-1s: vector encoding only the spliced form of murine XBP-1, a protein of 371 aa (protein)
chain: MVVVAAAPSAATAAPKVLLLSGQPASGGRALPLMVPGPRAAGSEASGTPQARKRQRLTHLSPEEKALRRKLKNRVAAQTARDRKKARMSELEQQVVDLEEENHKLQLENQLLREKTHGLVVENQELRTRLGMDTLDPDEVPEVEAKGSGVRLVAGSAESAAGAGPVVTSPEHLPMDSDTVASSDSESDILLGILDKLDPVMFFKCPSPESASLEELPEVYPEGPSSLPASLSLSVGTSSAKLEAINELIRFDHVYTKPLVLEIPSETESQTNVVVKIEEAPLSSSEEDHPEFIVSVKKEPLEDDFIPELGISNLLSSSHCLRPPSCLLDAHSDCGYEGSPSPFSDMSSPLGTDHSWEDTFANELFPQLISV
- UPRE reporter activity (XBP-1s; in the absence of treatment): greatly increased reporter activity

B2: dn-XBP: dominant negative XBP-1 containing the N-terminal 188 aa, lacking transactivation domain, retaining leucine zipper (protein)
chain: MVVVAAAPSAATAAPKVLLLSGQPASGGRALPLMVPGPRAAGSEASGTPQARKRQRLTHLSPEEKALRRKLKNRVAAQTARDRKKARMSELEQQVVDLEEENHKLQLENQLLREKTHGLVVENQELRTRLGMDTLDPDEVPEVEAKGSGVRLVAGSAESAAGAGPVVTSPEHLPMDSDTVASSDSESD
- effect on transactivation of UPRE reporter by XBP-1s (XBP-1s; in the absence of PIs): inhibits XBP-1s -induced transactivation very efficiently
